Test results from patent US6359003B1 (Fumapharm AG, priority 1998, dated 2002).

What was measured:
Ehrlich ascites tumour = conditions: mice; cited from earlier work
[1] = high dosages; parenterally, transdermally and especially perorally; cited from earlier work
[2] = tested on: acute rejection of the graft (host-versus-graft reaction), rat kidney transplantation model; experiment: Acute rejection model, rat kidney transplantation; type: in vivo; conditions: 33.3 mg/kg/day, day -28 to +28
Method: (§1) The effect of calcium methyl fumarate for alleviating the host-versus-graft reaction both in acute and chronic rejection models was investigated on a rat kidney transplantation model.
In order to investigate the influence of calcium methyl fumarate on the acute rejection of the graft, animal experiments were carried out (on rats). For this purpose, two groups of rats were treated with calcium methyl fumarate (CaMF; dosage: 33.3 mg/kg/day) or a placebo for a total period of 56 days [28 days before the kidney transplantation (−28) to 28 days after transplantation (+28)]. The number of animals with results fit for evaluation were n=9 in the placebo group and n=12 in the verum group. After that, the survival time of the animals in days after the transplantation was evaluated.

[3] = tested on: chronic rejection (host-versus-graft reaction), rat kidney transplantation model; experiment: Chronic rejection model, rat kidney transplantation; type: in vivo; conditions: for Creatinine: serum; for Creatinine / Proteinuria: week 10 after transplantation, cyclosporine 1.5 mg/kg/day s.c. day 0-9
Description: as §1
In order to investigate the effect of calcium methyl fumarate on chronic rejection, three groups of rats received transplants (kidneys) in animal experiments. Groups 1 and 2 received a placebo (group 1) or calcium methyl fumarate (CaMF) (group 2) as active ingredient from day 28 before until day 28 after transplantation. The third group was given CaMF from day 30 to 60 after the kidney transplantation. All animals received cyclosporine from day 0 to 9 after the transplantation. The dosages administered were 1.5 mg/kg/day of cyclosporine (subcutaneously) and 33.3 mg/kg/day of CaMF (perorally).
The effect of the treatment was checked by measuring the creatinine levels in the serum, initially on day 0, 1, 3, 5, and 10 and then once a week, and by observing the urine protein levels which were measured once a week. In groups 1 and 2, n=10 animals each provided results suitable for evaluation; in group 3, n=9.

[4] = Group 2: 33.3 mg/kg/day perorally day -28 to +28, n=10
[5] = Group 3: 33.3 mg/kg/day perorally day +30 to +60, n=9

Question: With O=C(O)/C=C/C(=O)O [Fumaric acid] as the compound, how does the “Growth of the Ehrlich ascites tumour” value (Ehrlich ascites tumour) read?
Answer: inhibits the growth

Question: Which “Side effects and toxicity” value [1] does the source give for O=C(O)/C(O)=C(\O)C(=O)O [dihydroxyl fumaric acid] here?
Answer: unacceptably severe side effects and high toxicity

Question: With N#C/C=C/C#N [fumaronitrile] as the compound, how does the “Side effects and toxicity” value [1] read?
Answer: unacceptably severe side effects and high toxicity

Question: Which “Side effects and toxicity” value [1] does the source give for NC(=O)/C=C/C(N)=O [fumaramide] here?
Answer: unacceptably severe side effects and high toxicity

Question: With calcium methyl fumarate [CaMF] as the compound, how does the “Average survival time in days versus placebo (in words)” value [2] read?
Answer: significant increase

Question: What about the “Number of surviving animals” value ([2]; >100 days after transplantation, n=12) of the same compound?
Answer: 4

Question: And the “Average survival time” value ([2]; after kidney transplantation, n=12)?
Answer: >42.3 ± 41.0 days

Question: What about the “Number of surviving animals” value ([2]; day 6 after transplantation, n=12) of the same compound?
Answer: 12

Question: And the “Number of surviving animals” value ([2]; day 7 after transplantation, n=12)?
Answer: 12

Question: What about the “Number of surviving animals” value ([2]; day 8 after transplantation, n=12) of the same compound?
Answer: 12

Question: What about the “Number of surviving animals” value ([2]; day 9 after transplantation, n=12) of the same compound?
Answer: 11

Question: What about the “Number of surviving animals” value ([2]; day 10 after transplantation, n=12) of the same compound?
Answer: 10

Question: What about the “Number of surviving animals” value ([2]; day 12 after transplantation, n=12) of the same compound?
Answer: 9

Question: And the “Number of surviving animals” value ([2]; day 13 after transplantation, n=12)?
Answer: 8

Question: And the “Number of surviving animals” value ([2]; day 14 after transplantation, n=12)?
Answer: 7

Question: And the “Number of surviving animals” value ([2]; day 16 after transplantation, n=12)?
Answer: 6

Question: What about the “Number of surviving animals” value ([2]; day 17 after transplantation, n=12) of the same compound?
Answer: 5

Question: What about the “Number of surviving animals” value ([2]; day 26 after transplantation, n=12) of the same compound?
Answer: 5

Question: And the “Number of surviving animals” value ([2]; day 27 after transplantation, n=12)?
Answer: 4

Question: And the “Damage to the kidneys (in words)” value ([3]; 10 weeks of follow-up, versus placebo)?
Answer: significant inhibition of damage to the kidneys

Question: What about the Creatinine [3, 4] of the same compound?
Answer: 55.7 ± 9.6 µmol/L

Question: What about the Creatinine [3, 5] of the same compound?
Answer: 88.0 ± 42.4 µmol/L

Question: And the Proteinuria [3, 4]?
Answer: 31.8 ± 18.4 mg/24 hrs

Question: What about the Proteinuria [3, 5] of the same compound?
Answer: 52.5 ± 31.6 mg/24 hrs
